Some test systems named below: 786-0 renal; A549 NSCLC; MDA-MB-435; MOLT-4 leukemia; NCI-H460 lung; OVCAR-4 ovarian; SF-539 CNS; SK-MEL-28 melanoma; SK-OV-3 ovarian; PC-3 prostate.
What all share (assay): NCI tumour cell line growth inhibition, 48 h

The structures appear in SMILES notation.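 Following 48 hours of exposure in 96-well plates, responses at five concentrations were used to interpolate endpoints linearly. The concentration for 50% growth inhibition is given as GI50. The concentration for full growth arrest is given as TGI.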

For the compound `Cc1cc2c(C(=O)NCC#N)cccc2n1-c1nc2c(c(NCc3ccccc3)n1)CCCC2`, the GI50 was 0.382 µM with 786-0 renal; 0.312 µM with A549 NSCLC; 0.249 µM in the assay with MDA-MB-435; 0.313 µM with MOLT-4 leukemia; 0.261 µM in the assay on NCI-H460 lung; 0.322 µM in the assay on OVCAR-4 ovarian. The GI50 in the assay with SF-539 CNS was 0.249 µM; in the assay with SK-MEL-28 melanoma it was 0.406 µM; in the assay with SK-OV-3 ovarian, 0.431 µM. The TGI in the assay on 786-0 renal was 1.39 µM; in the assay on A549 NSCLC it was 1.28 µM; in the assay with MDA-MB-435 it was 0.809 µM; with MOLT-4 leukemia it was 65.6 µM; with NCI-H460 lung it was 0.686 µM; in the assay on OVCAR-4 ovarian it was 1.76 µM. The results for the TGI with SF-539 CNS, in the assay with SK-MEL-28 melanoma and with SK-OV-3 ovarian were 0.764 µM, 1.86 µM and 2.78 µM, respectively.

Take `O=C1Nc2ccc(O)cc2/C1=C\c1ccncc1`: the GI50 is 18.5 µM in the assay on 786-0 renal; 26.2 µM with A549 NSCLC; 18.2 µM in the assay with MDA-MB-435; 12.7 µM in the assay on NCI-H460 lung; 26.9 µM in the assay on PC-3 prostate; 6.11 µM in the assay with SF-539 CNS. For the same compound, the GI50 in the assay with SK-OV-3 ovarian is 58.9 µM. The TGI with 786-0 renal turned out to be 39 µM; in the assay with A549 NSCLC, 82.8 µM; in the assay with MDA-MB-435, 71 µM; in the assay with NCI-H460 lung, 42.9 µM; in the assay on PC-3 prostate, 77.8 µM; with SF-539 CNS, 23.1 µM. In the assay with SK-OV-3 ovarian, this compound registered a TGI of over 100 µM.

For the compound `Cc1cncc(-c2nc(NCCc3c[nH]c4ccccc34)c3ncn(C(C)C)c3n2)c1`, the GI50 in the assay with 786-0 renal is 2.01 µM; in the assay on A549 NSCLC, 4.28 µM; in the assay on MDA-MB-435, 4.6 µM; with NCI-H460 lung it was 3.33 µM; in the assay with OVCAR-4 ovarian, 3.93 µM; with PC-3 prostate it was 3.98 µM. For the same compound, the figures for the GI50 with SF-539 CNS, in the assay with SK-MEL-28 melanoma and in the assay on SK-OV-3 ovarian were 3.64 µM, 2.52 µM and 5.76 µM, respectively. Also, the TGI with 786-0 renal is 6.01 µM; in the assay on A549 NSCLC it was over 100 µM; in the assay on MDA-MB-435, 17 µM; in the assay on NCI-H460 lung it was 13.3 µM; with OVCAR-4 ovarian it was 39.6 µM; in the assay on PC-3 prostate it was 35.8 µM. The TGI with SF-539 CNS worked out at 12.4 µM; in the assay on SK-MEL-28 melanoma, 6.66 µM; in the assay on SK-OV-3 ovarian, 35.7 µM.

Take `COc1ccc(C2=NN(C=O)C(c3ccc(OS(=O)(=O)c4ccc(C)cc4)c(OC)c3)C2)cc1` (stereo not drawn): the GI50 in the assay with 786-0 renal is 21.6 µM; with A549 NSCLC it was 9.42 µM; in the assay on MDA-MB-435, 2.4 µM; with MOLT-4 leukemia, 5.23 µM; with NCI-H460 lung, 8.86 µM; with PC-3 prostate, 3.34 µM. For the same compound, the values for the GI50 with SF-539 CNS, in the assay with SK-MEL-28 melanoma and with SK-OV-3 ovarian were 8.62 µM, 10.6 µM and 8.88 µM, respectively. The TGI in the assay on 786-0 renal was over 100 µM; with A549 NSCLC it was over 100 µM; with MDA-MB-435 it was 9.97 µM; with MOLT-4 leukemia, over 100 µM; with NCI-H460 lung, over 100 µM; in the assay on PC-3 prostate, over 100 µM. The TGI in the assay on SF-539 CNS, with SK-MEL-28 melanoma and with SK-OV-3 ovarian was over 100 µM each time.

In the case of `CC(=O)N(C)c1cc(NCc2ccccc2)ccc1OCc1ccccc1`, the TGI in the assay on 786-0 renal was found to be 76.6 µM; with A549 NSCLC, 36.7 µM; with MDA-MB-435 it was 32.2 µM; in the assay on MOLT-4 leukemia, 50.4 µM; in the assay with NCI-H460 lung it was 33.4 µM; in the assay on OVCAR-4 ovarian, 36.6 µM. Besides, the TGI in the assay with SF-539 CNS is 32 µM; in the assay on SK-MEL-28 melanoma, 35.4 µM; with SK-OV-3 ovarian it was 43.1 µM.

`O=c1c2cccc(F)c2sc2c(NCCCNCCO)nc3ccccc3c12`: the GI50 was 1.44 µM with 786-0 renal; 1.13 µM in the assay with A549 NSCLC; 1.63 µM with MDA-MB-435; 0.698 µM in the assay with MOLT-4 leukemia; 0.653 µM with NCI-H460 lung; 1.77 µM in the assay with OVCAR-4 ovarian. For the same compound, the GI50 in the assay with PC-3 prostate is 1.66 µM; in the assay on SF-539 CNS it was 1.65 µM; in the assay on SK-MEL-28 melanoma, 1.86 µM. Besides, the TGI was determined as 2.84 µM with 786-0 renal; 3.08 µM in the assay with A549 NSCLC; 3 µM with MDA-MB-435; 2.43 µM in the assay on MOLT-4 leukemia; 1.95 µM in the assay with NCI-H460 lung; 3.64 µM with OVCAR-4 ovarian. The TGI with PC-3 prostate turned out to be 3.31 µM; in the assay on SF-539 CNS it was 3.05 µM; with SK-MEL-28 melanoma, 3.31 µM.

In the case of `COc1cccc(CCNC(=O)CC(c2ccccc2)(c2ccccc2)c2ccccc2)c1`, the GI50 in the assay with 786-0 renal is 10.6 µM; in the assay with A549 NSCLC, 4.11 µM; in the assay with MDA-MB-435 it was 6.5 µM; in the assay on MOLT-4 leukemia, 6.01 µM; in the assay with NCI-H460 lung it was 10.5 µM; with OVCAR-4 ovarian it was over 100 µM. Besides, the results for the GI50 in the assay with PC-3 prostate, with SK-MEL-28 melanoma and in the assay with SK-OV-3 ovarian were 6.12 µM, over 100 µM and over 100 µM, respectively. For the same compound, the TGI with 786-0 renal is over 100 µM; with A549 NSCLC it was 96.5 µM; with MDA-MB-435, over 100 µM; in the assay with MOLT-4 leukemia it was over 100 µM; in the assay with NCI-H460 lung it was over 100 µM; in the assay with OVCAR-4 ovarian, over 100 µM. The TGI in the assay on PC-3 prostate, in the assay on SK-MEL-28 melanoma and with SK-OV-3 ovarian was over 100 µM each time.

Consider `NC(CP(=O)(O)O)C(=O)O` (stereo not drawn), for which the TGI in the assay on 786-0 renal, in the assay on A549 NSCLC, with MDA-MB-435, in the assay with MOLT-4 leukemia, in the assay with NCI-H460 lung and in the assay on OVCAR-4 ovarian was over 100 µM each time. The TGI in the assay with PC-3 prostate, in the assay with SK-MEL-28 melanoma and with SK-OV-3 ovarian was over 100 µM throughout.

`C=C1C(=O)O[C@@H]2C[C@@H]1CC[C@]1(C)O[C@H]1CC/C(C)=C/CC[C@@]2(C)O`: the GI50 with 786-0 renal was 17 µM; in the assay with A549 NSCLC, 25.3 µM; in the assay with MDA-MB-435, 18.3 µM; in the assay with MOLT-4 leukemia, 11.7 µM; in the assay on NCI-H460 lung, 15.7 µM; with PC-3 prostate it was 96.3 µM. For the same compound, the GI50 is 16.5 µM in the assay on SF-539 CNS and 25.5 µM in the assay with SK-OV-3 ovarian. Also, the TGI with 786-0 renal is 31.2 µM; in the assay with A549 NSCLC, 83.7 µM; with MDA-MB-435, 41.1 µM; in the assay with MOLT-4 leukemia, 28.1 µM; in the assay on NCI-H460 lung, 40.2 µM; in the assay with PC-3 prostate, over 100 µM. For the same compound, the TGI stood at 34.5 µM in the assay with SF-539 CNS and 64 µM with SK-OV-3 ovarian.

For the origin of these results see PubChem BioAssay (NCI).
